Read-outs that look alike come from different tables or passages of the source.
Experiments:
[1] = tested on: A. niger; assay: Mold resistance of treated wood stakes (ASTM D4445-91), A. niger; type: cell-based, Aspergillus niger 2.242
Method: (§1) The biocide compositions were first tested for the efficacy in preventing mold fungal growth. […] The mold fungi were first prepared by growing the various mold fungi species on 2% malt agar. […] Spore suspensions were transferred to a spray bottle and diluted to 100 milliliters with DI water. The spray bottle was adjusted to deliver 1 milliliter inoculum/spray.
(§2) The biocide compositions were tested for the efficacy in preventing mold fungal growth and compared to the abilities of the commercially used preservatives, fungicides, extracts, and pharmaceuticals in preventing mold fungal growth.
(§3) Specimens (7×20 millimeters cross section by 7 centimeters long) were cut from unseasoned southern yellow pine mill ends from a Mississippi sawmill and stored at 0° C. […] Southern yellow pine oriented strand board (OSB) specimens (11×20 millimeters cross section by 7 centimeters long) were cut from a full sheet of OSB and conditioned to 70% relative humidity. […] Untreated stakes were dipped in DI water and served as Control A for water-based test chemicals. […]
(§4) The biocide compositions were first tested for the efficacy in preventing mold fungal growth. […]

[2] = tested on: T. viride; assay: Mold resistance of treated wood stakes (ASTM D4445-91), T. viride; type: cell-based, Trichoderma viride ATCC 20476
Method: as §1, §2, §3, §4

[3] = tested on: P. chrysogenum; assay: Mold resistance of treated wood stakes (ASTM D4445-91), P. chrysogenum; type: cell-based, Penicillium chrysogenum PH02
Method: as §1, §2, §3, §4

[4] = Example 2, dip-treated unseasoned southern yellow pine, 4 weeks, scale 0-5 (5 = 100% coverage)

| Molecule | Mold Resistance Average Rating, A. niger [1, 4] | Mold Resistance Average Rating, T. viride [2, 4] | Mold Resistance Average Rating, P. chrysogenum [3, 4] | Mold Resistance Average Rating, A. niger [1] | Mold Resistance Average Rating, T. viride [2] | Mold Resistance Average Rating, P. chrysogenum [3] |
| --- | --- | --- | --- | --- | --- | --- |
| O=C([O-])c1ccccc1.[Na+] [Sample 13, Sodium benzoate] | 2.9 | 3.1 | 2.4 | – | – | – |
| O=C([O-])c1ccccc1.[Na+] [Sample 14, Sodium benzoate] | 1.7 | 1.0 | 0.0 | – | – | – |
| O=C([O-])c1ccccc1.[Na+] [Sample 15, Sodium benzoate] | 0.4 | 0.4 | 0.0 | – | – | – |
| O=C([O-])c1ccccc1.[Na+] [Sample 16, Sodium benzoate] | 0.0 | 0.7 | 0.0 | – | – | – |
| CCC(=O)[O-].CCC(=O)[O-].[Ca+2] [Sample 17, Calcium propionate] | 5.0 | 4.6 | 4.9 | – | – | – |
| CCC(=O)[O-].CCC(=O)[O-].[Ca+2] [Sample 18, Calcium propionate] | 5.0 | 4.7 | 5.0 | – | – | – |
| CCC(=O)[O-].CCC(=O)[O-].[Ca+2] [Sample 19, Calcium propionate] | 0.9 | 3.3 | 2.0 | – | – | – |
| C/C=C/C=C/C(=O)[O-].[K+] [Sample 20, Potassium sorbate] | – | – | – | 5.0 | 4.9 | 5.0 |
| C/C=C/C=C/C(=O)[O-].[K+] [Sample 21, Potassium sorbate] | – | – | – | 2.6 | 2.9 | 2.6 |
| C/C=C/C=C/C(=O)[O-].[K+] [Sample 22, Potassium sorbate] | – | – | – | 0.0 | 0.7 | 0.0 |
| C/C=C/C=C/C(=O)[O-].[K+] [Sample 23, Potassium sorbate] | – | – | – | 0.0 | 1.0 | 0.0 |
| C/C=C/C=C/C(=O)[O-].[K+] [Sample 24, Potassium sorbate] | – | – | – | 0.0 | 0.0 | 1.7 |
| O=C[O-].[Na+] [Sample 25, Sodium formate] | 5.0 | 4.3 | 4.6 | – | – | – |
| O=C[O-].[Na+] [Sample 26, Sodium formate] | 5.0 | 4.1 | 4.7 | – | – | – |
| O=C[O-].[Na+] [Sample 27, Sodium formate] | 4.7 | 4.0 | 3.3 | – | – | – |
| O=NO [Sample 28, Sodium nitrite] | 5.0 | 5.0 | 4.9 | – | – | – |
| CC(C)c1cccc(O)c(=O)c1 [Sample 30, Thujaplicin (isopropyltropolone)] | 0.0 | 0.0 | 0.0 | – | – | – |
| Clc1ccc(COC(Cn2ccnc2)c2ccc(Cl)cc2Cl)c(Cl)c1 (stereo not drawn) [Sample 34, Miconazole] | 0.0 | 0.0 | 0.0 | – | – | – |
| OC(Cn1cncn1)(Cn1cncn1)c1ccc(F)cc1F [Sample 39, Difluconazole] | 5.0 | 5.0 | 4.7 | – | – | – |
| Clc1ccccc1C(c1ccccc1)(c1ccccc1)n1ccnc1 [Sample 40, Clotrimazole] | 5.0 | 3.7 | 3.4 | – | – | – |
| C[C@@H](c1ncncc1F)[C@](O)(Cn1cncn1)c1ccc(F)cc1F [Sample 41, Voriconazole] | 0.0 | 2.4 | 0.0 | – | – | – |
| C[C@@H](c1ncncc1F)[C@](O)(Cn1cncn1)c1ccc(F)cc1F [Sample 42, Voriconazole] | 0.0 | 1.3 | 0.0 | – | – | – |
| C[C@@H](c1ncncc1F)[C@](O)(Cn1cncn1)c1ccc(F)cc1F [Sample 43, Voriconazole] | 0.1 | 0.4 | 0.0 | – | – | – |
| C[C@@H](c1ncncc1F)[C@](O)(Cn1cncn1)c1ccc(F)cc1F [Sample 44, Voriconazole] | 0.0 | 0.1 | 0.0 | – | – | – |
| c1ccc2[nH]c(-c3cscn3)nc2c1 [Sample 45, Thiabendazole] | 0.0 | 2.5 | 0.0 | – | – | – |
| c1ccc2[nH]c(-c3cscn3)nc2c1 [Sample 46, Thiabendazole] | 0.0 | 0.0 | 0.0 | – | – | – |
| c1ccc2[nH]c(-c3cscn3)nc2c1 [Sample 47, Thiabendazole] | 0.0 | 0.0 | 0.0 | – | – | – |
| Thujaplicin (isopropyltropolone) [Sample 29] | 5.0 | 1.0 | 0.0 | – | – | – |

Reference: patent US7858125B2, “Multi-component biocide composition for wood protection” (priority 2006, dated 2010)
